What was measured:
Beta-secretase 1 [1] = biological target: T1, Beta-secretase 1 (Homo sapiens, UniProt P56817); assay: In Vitro BACE Cell-Based Assay: The cell-based assay measures inhibition or reduction of Aβ40 in conditioned medium of test compound treated cells expressing amyloid precursor protein. Cells stably expressing Amyloid Precursor Protein (APP) were plated at a density of 40K cells/well in 96 well plates (Costar). The cells were cultivated for 24 hours at 37° C. and 5% CO2 in DMEM supplemented with 10% FBS. The test compounds were then added to cells in 10-point dose response concentrations with the starting concentration being either 100 uM or 10 uM. The compounds were diluted from stock solutions in DMSO and the final DMSO concentration of the test compounds on cells was 0.1%. After 24 h of incubation with the test compounds the supernatant conditioned media was collected and the Aβ 40 levels were determined using a sandwich ELISA.
Beta-secretase 1 [2] = biological target: T1, Beta-secretase 1; assay: In Vitro Enzymatic BACE FRET Assay: The assay buffer used in this screen is 0.05 M acetate, pH 4.2, 10% DMSO final, 100 uM genapol (which is a nonionic detergent, below its Critical Micelle Concentration). The Beta Secretase enzyme (0.2 nM) is pre-incubated for one hour with inhibitors, typically in about 1 uL of DMSO according to a serial dilution, are added thereto. This assay is effectively started by the addition of FRET substrate (50 nM) and the combination is incubated for one hour. The FRET assay is terminated with by addition of Tris buffer, which raises the pH to neutrality, and the fluorescence is determined. The FRET substrate is a peptide with commercially available fluorophore and quencher, on opposite sides of the BACE cleavage site. Proteolytic cleavage of the FRET substrate releases quenching of fluorescence (excitation 488 nm and […]).
Cathepsin D = Cathepsin D (Homo sapiens, UniProt P07339); assay: In Vitro Enzymatic Cathepsin D FRET Assay: Recombinant Cat D was expressed in CHO cells. The assay buffer for CathepsinD is 0.05 M citrate pH 3.5, 10% DMSO final, 5 mM CHAPS. The Cat D enzyme (9 nM) is pre-incubated for one hour with inhibitors, typically in about 1 uL of DMSO according to a serial dilution, is added thereto. The assays are effectively started by the addition of different FRET substrates (20 nM for Cat D) and the combination is incubated for one hour. The FRET assay is terminated with by addition of Tris buffer, which raises the pH to neutrality, and the fluorescence is determined. The FRET substrate is a peptide with commercially available fluorophore and quencher, on opposite sides of the BACE cleavage site. […] Proteolytic cleavage of the FRET substrate releases quenching of fluorescence (Cat D excitation 500 nm and emission 580 nm).; assay type: cell-based
Sequence of Cathepsin D (P07339 65-162 limits assumed): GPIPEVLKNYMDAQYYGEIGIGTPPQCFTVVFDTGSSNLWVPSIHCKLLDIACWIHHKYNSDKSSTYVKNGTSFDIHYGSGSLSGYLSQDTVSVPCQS
Sequence of Cathepsin D (P07339 169-412 limits assumed): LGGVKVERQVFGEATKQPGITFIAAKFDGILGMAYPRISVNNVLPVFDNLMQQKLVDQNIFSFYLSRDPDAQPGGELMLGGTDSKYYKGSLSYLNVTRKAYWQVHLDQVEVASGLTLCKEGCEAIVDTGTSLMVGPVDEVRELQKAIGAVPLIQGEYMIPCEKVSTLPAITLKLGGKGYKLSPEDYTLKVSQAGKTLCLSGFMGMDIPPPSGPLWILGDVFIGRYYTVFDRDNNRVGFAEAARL

T1 sequence (P56817 whole entry): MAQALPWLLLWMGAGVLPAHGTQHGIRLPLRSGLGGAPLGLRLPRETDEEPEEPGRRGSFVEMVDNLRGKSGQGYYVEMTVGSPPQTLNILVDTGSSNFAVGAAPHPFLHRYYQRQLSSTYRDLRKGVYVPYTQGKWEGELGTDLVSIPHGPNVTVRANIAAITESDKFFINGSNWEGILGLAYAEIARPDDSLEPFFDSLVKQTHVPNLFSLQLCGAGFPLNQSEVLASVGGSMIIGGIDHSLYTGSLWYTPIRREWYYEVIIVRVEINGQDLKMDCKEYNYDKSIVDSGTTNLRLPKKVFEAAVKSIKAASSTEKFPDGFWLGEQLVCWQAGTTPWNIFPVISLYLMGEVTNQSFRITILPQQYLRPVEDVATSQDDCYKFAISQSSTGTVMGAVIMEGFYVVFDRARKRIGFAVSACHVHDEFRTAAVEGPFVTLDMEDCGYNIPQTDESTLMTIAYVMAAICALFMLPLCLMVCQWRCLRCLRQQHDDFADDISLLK

Compound | IC50 (Beta-secretase 1 [1]) [µM] | IC50 (Beta-secretase 1 [2]) [µM] | IC50 (Cathepsin D) [µM] | IC50 (Cathepsin D; cho) [µM]
C#CCOc1ccc(C(=O)Nc2cc(F)c(F)c([C@]3(C)C[C@@H](C(F)(F)F)OC(N)=N3)c2)nc1 | 0.012 | 0.01 | 1190 | –
COC(=O)c1ccnc(Oc2ccc(F)c([C@]3(CF)C[C@@H](C(F)(F)F)OC(N)=N3)c2)c1 | 3.56 | – | – | –
Cc1cc(OCC2CC2)cnc1C(=O)Nc1ccc(F)c([C@]2(CF)C[C@@H](C(F)(F)F)OC(N)=N2)c1 | 0.487 | 0.12 | – | > 400

Source: ChEMBL document CHEMBL3886610, “Perfluorinated 5,6-dihydro-4H-1,3-oxazin-2-amine compounds as beta-secretase inhibitors and methods of use” (2016)
